Results on one compound are retold here after ChEMBL document CHEMBL1155798, “Enhanced affinity of ketotifen toward tamarind seed polysaccharide in comparison with hydroxyethylcellulose and hyaluronic acid: a nuclear magnetic resonance investigation” (Bioorg Med Chem, 2008).

Assay [1] deals with Tamarindus indica. Kind of assay: Binding affinity to tamarind seed polysaccharide by NMR.
In assay [2] the test system is Tamarindus indica. Nature of the assay: Binding affinity to tamarind seed polysaccharide by dynamic dialysis.

Active and inactive are the calls of the source. No cut-off for these calls is given here.

Consider `CN1CCC(=C2c3ccccc3CC(=O)c3sccc32)CC1`, for which the outcome in the assay with Tamarindus indica [1] and in the assay on Tamarindus indica [2] was Active.
